Data on 22 compounds can be found in ChEMBL document CHEMBL6087416, “Discovery of novel fused-heterocycle-bearing diarypyrimidine derivatives as HIV-1 potent NNRTIs targeting tolerant region I for enhanced antiviral activity and resistance profile” (Eur J Med Chem, 2025).

Data set [1] deals with Human immunodeficiency virus 2. The data set can be described thus: Antiviral activity against HIV-2 ROD infected in human MT4 cells assessed as protection against virus-induced cytopathic effect incubated for 5 days by MTT assay. Type of data set: functional, organism-based. The settings on record: Human immunodeficiency virus 2, ROD, MT4, 120 h. For orientation: Cytopathic effects are the visible damage that an infection or toxin causes in cultured cells.

Data set [2] in a line: Cytotoxicity against human MT4 cells assessed as reduction in cell viability measured after 5 days by MTT assay. Type of data set: toxicity, cell-based. The settings on record: time 5 day. For orientation: Tetrazolium assays rely on reduction of a dye to a coloured formazan, in cell work by metabolically active cells.
Data set [3] has as its system Human immunodeficiency virus 1. The data set can be described thus: microbe, parasite or virus in culture. Particulars: Human immunodeficiency virus 1, IIIB, MT4, 120 h.
Description: Antiviral activity against wild type HIV-1 IIIB infected in human MT4 cells assessed as protection against virus-induced cytopathic effect incubated for 5 days by MTT assay
The test system of data set [4] is Human immunodeficiency virus 1. The format is functional, organism-based. The settings on record: Human immunodeficiency virus 1, RES056, MT4, 120 h.
The nature of data set [5]: in vitro. The settings on record: human, MT4 cells.
Description: Selectivity index, ratio of CC50 for human MT4 cells to EC50 for wild type HIV-1 IIIB infected in human MT4 cells
Data set [6] concerns the target Human immunodeficiency virus type 1 reverse transcriptase (Human immunodeficiency virus 1, UniProt Q72547). Briefly: Inhibition of wild type HIV-1 Reverse transcriptase incubated for 1 hrs by ELISA analysis.
Data set [7] is described as follows: in vitro. Particulars: human, MT4 cells. The source holds these as a separate data set.
Description: Selectivity index, ratio of CC50 for human MT4 cells to EC50 for HIV-1 RES056 harboring RT K103N/Y181C mutant infected in human MT4 cells

Broadly, the EC50 is the concentration needed to bring the measured effect to its halfway point. In general, CC50 refers to the concentration that lowers cell viability or growth by half. As a reminder, the IC50 is the concentration needed to halve the response being measured. Higher therefore signals weaker potency in that assay.

A value given as a limit tells only on which side of the number the result lay.

On to `Cc1cc(/C=C/C#N)cc(C)c1Oc1ccnc(Nc2ccc3sccc3c2)n1`, for which the figures for the EC50 in data set [1], in data set [3] and in data set [4] were above 1710 nM, 8 nM and above 1710 nM, respectively. The half-maximal cytotoxic concentration (CC50) at 120 h in data set [2] was 1710 nM. Moreover, in the data set “in vitro [5]”, the selectivity ratio is 221. Further, in data set [6], the IC50 came to 45 nM.

Regarding `Cc1cc(/C=C/C#N)cc(C)c1Oc1ccnc(Nc2ccc3nc(C#N)sc3c2)n1`, the values for the half-maximal effective concentration (EC50) in data set [1], in data set [3] and in data set [4] were above 81600 nM, 61 nM and above 81600 nM, respectively. The 50% cytotoxic concentration (CC50) at 120 h in data set [2] came out at 81600 nM. Also, the selectivity ratio in “in vitro [5]” was determined as 1330. Also, the IC50 in data set [6] turned out to be 1130 nM.

Consider `Cc1nc2cc(Nc3nccc(Oc4c(C)cc(/C=C/C#N)cc4C)n3)ccc2o1`, for which the EC50 in data set [1] is above 1000 nM; in data set [3] it was 8 nM; in data set [4], above 1000 nM. Moreover, the CC50 at 120 h in data set [2] stood at 1000 nM. In addition, in “in vitro [5]”, the selectivity ratio was found to be 129. The same compound yielded an IC50 in data set [6] of 53 nM.

`Cc1cc(/C=C/C#N)cc(C)c1Oc1ccnc(Nc2ccc3c(c2)CCN(C(=O)CS(C)(=O)=O)C3)n1`: the results for the concentration giving a half-maximal response (EC50) in data set [1], in data set [3] and in data set [4] were above 5950 nM, 9 nM and above 5950 nM, respectively. Besides, the CC50 at 120 h in data set [2] amounted to 5950 nM. Further, the selectivity ratio in the data set “in vitro [5]” came to 642. The IC50 in data set [6] stood at 120 nM.

Take `Cc1cc(/C=C/C#N)cc(C)c1Oc1ccnc(Nc2ccc3c(C)cc(=O)oc3c2)n1`: the figures for the EC50 in data set [1], in data set [3] and in data set [4] were above 47100 nM, 18 nM and above 47100 nM, respectively. Further, the CC50 at 120 h in data set [2] is above 47100 nM. Besides, the selectivity ratio in the data set “in vitro [5]” is above 2590. In addition, half-maximal inhibition in data set [6] (IC50) required 78 nM.

Take `Cc1cc(/C=C/C#N)cc(C)c1Oc1ccnc(Nc2ccc3ncsc3c2)n1`: the EC50 in data set [1] was above 46000 nM; in data set [3], 9 nM; in data set [4], 2870 nM. Also, the CC50 at 120 h in data set [2] worked out at 46000 nM. In addition, the values for the selectivity ratio in the data set “in vitro [7]” and in the data set “in vitro [5]” were 16 and 5140, respectively. This compound registered a half-maximal inhibitory concentration (IC50) in data set [6] of 70 nM.

On to `COP(=O)(OC)N1CCc2ccc(Nc3nccc(Oc4c(C)cc(/C=C/C#N)cc4C)n3)cc2C1`, for which the concentration for a half-maximal effect (EC50) in data set [1] is above 7010 nM; in data set [3], 120 nM; in data set [4], above 7010 nM. In addition, in data set [2], the half-maximal cytotoxic concentration (CC50) at 120 h stood at 7010 nM. Besides, in “in vitro [5]”, the selectivity ratio was 58. Also, in data set [6], the concentration for half-maximal inhibition (IC50) came out at 630 nM.

Regarding `Cc1cc(/C=C/C#N)cc(C)c1Oc1ccnc(Nc2ccc3c(c2)CN(C(=O)CS(C)(=O)=O)CC3)n1`, the half-maximal effective concentration (EC50) in data set [1] was above 8640 nM; in data set [3] it was 17 nM; in data set [4] it was above 8640 nM. The half-maximal cytotoxic concentration (CC50) at 120 h in data set [2] was 8640 nM. Moreover, the selectivity ratio in “in vitro [7]” was found to be 1; in “in vitro [5]”, 524. In addition, in data set [6], the half-inhibitory concentration (IC50) was determined as 230 nM.

Consider `Cc1cc(/C=C/C#N)cc(C)c1Oc1ccnc(Nc2ccc3c(c2)CN(S(C)(=O)=O)CC3)n1`, for which the results for the EC50 in data set [1], in data set [3] and in data set [4] were above 4950 nM, 6 nM and above 4950 nM, respectively. Further, the CC50 at 120 h in data set [2] stood at 4950 nM. Moreover, the selectivity ratio in “in vitro [5]” turned out to be 791. The same compound had an IC50 in data set [6] of 78 nM.

For `Cc1cc(/C=C/C#N)cc(C)c1Oc1ccnc(Nc2ccc3c(c2)CN(C)C3=O)n1`, the half-maximal effective concentration (EC50) is above 40400 nM in data set [1], 31 nM in data set [3] and above 40400 nM in data set [4]. Further, in data set [2], the CC50 at 120 h was 40400 nM. Also, the selectivity ratio in the data set “in vitro [5]” amounted to 1290. Moreover, in data set [6], the IC50 came to 630 nM.

As for `Cc1cc(/C=C/C#N)cc(C)c1Oc1ccnc(Nc2ccc3c(c2)CN(S(N)(=O)=O)CC3)n1`, the values for the EC50 in data set [1], in data set [3] and in data set [4] were above 11600 nM, 16 nM and 6470 nM, respectively. In addition, in data set [2], the CC50 at 120 h turned out to be 11600 nM. Further, the figures for the selectivity ratio in the data set “in vitro [7]” and in “in vitro [5]” were 2 and 743, respectively. Moreover, in data set [6], it took 110 nM to reach half-maximal inhibition (IC50).

For the compound `Cc1cc(/C=C/C#N)cc(C)c1Oc1ccnc(Nc2ccc3c(c2)OCCO3)n1`, the EC50 was above 12100 nM in data set [1], 14 nM in data set [3] and above 12100 nM in data set [4]. In addition, the CC50 at 120 h in data set [2] was 12100 nM. Further, the selectivity ratio in the data set “in vitro [5]” came out at 855. This compound also registered an IC50 in data set [6] of 50 nM.

With `Cc1cc(/C=C/C#N)cc(C)c1Oc1ccnc(Nc2ccc3c(c2)CCN(CCS(C)(=O)=O)C3)n1`, the EC50 in data set [1] is above 4770 nM; in data set [3], 19 nM; in data set [4] it was above 4770 nM. For the same compound, the CC50 at 120 h in data set [2] amounted to 4770 nM. The selectivity ratio in the data set “in vitro [5]” was 256. Besides, in data set [6], the half-maximal inhibitory concentration (IC50) came to 170 nM.

With `Cc1cc(/C=C/C#N)cc(C)c1Oc1ccnc(Nc2ccc3c(C(F)(F)F)cc(=O)oc3c2)n1`, the concentration for a half-maximal effect (EC50) was above 185000 nM in data set [1], 76 nM in data set [3] and above 185000 nM in data set [4]. Also, the half-maximal cytotoxic concentration (CC50) at 120 h in data set [2] worked out at 185000 nM. For the same compound, in “in vitro [5]”, the selectivity ratio came out at 2420. The same compound returned an IC50 in data set [6] of 230 nM.

With `Cc1nc2cc(Nc3nccc(Oc4c(C)cc(/C=C/C#N)cc4C)n3)ccc2s1`, the figures for the EC50 in data set [1], in data set [3] and in data set [4] were above 5310 nM, 12 nM and above 5310 nM, respectively. Further, the 50% cytotoxic concentration (CC50) at 120 h in data set [2] came to 5310 nM. Also, the selectivity ratio in the data set “in vitro [5]” was found to be 431. This compound displayed a concentration for half-maximal inhibition (IC50) in data set [6] of 77 nM.

For `Cc1cc(/C=C/C#N)cc(C)c1Oc1ccnc(Nc2ccc3c(c2)C(=O)NC3)n1`, the figures for the 50% effective concentration (EC50) in data set [1], in data set [3] and in data set [4] were above 103000 nM, 6 nM and above 103000 nM, respectively. Besides, the CC50 at 120 h in data set [2] amounted to 103000 nM. Further, in “in vitro [5]”, the selectivity ratio worked out at 16000. The compound also returned an IC50 in data set [6] of 58 nM.

As for `Cc1cc(/C=C/C#N)cc(C)c1Oc1ccnc(Nc2ccc3c(c2)OC(F)(F)O3)n1`, the EC50 in data set [1] is above 19200 nM; in data set [3], 20 nM; in data set [4], 5310 nM. For the same compound, the cytotoxic concentration (CC50) at 120 h in data set [2] was 19200 nM. Besides, the figures for the selectivity ratio in the data set “in vitro [7]” and in “in vitro [5]” were 4 and 966, respectively. This compound also gave an IC50 in data set [6] of 90 nM.

For the compound `Cc1cc(/C=C/C#N)cc(C)c1Oc1ccnc(Nc2ccc3c(c2)CCN(S(C)(=O)=O)C3)n1`, the EC50 in data set [1] is above 6630 nM; in data set [3] it was 7 nM; in data set [4], above 6630 nM. For the same compound, the CC50 at 120 h in data set [2] came out at 6630 nM. The selectivity ratio in the data set “in vitro [5]” worked out at 970. In data set [6], it took 100 nM to reach half-maximal inhibition (IC50).

Consider `Cc1cc(/C=C/C#N)cc(C)c1Oc1ccnc(Nc2ccc3c(c2)CN(CC#N)CC3)n1`, for which the results for the EC50 in data set [1], in data set [3] and in data set [4] were above 5850 nM, 37 nM and above 5850 nM, respectively. For the same compound, the cytotoxic concentration (CC50) at 120 h in data set [2] came out at 5850 nM. In addition, the selectivity ratio in “in vitro [5]” came to 159. The 50% inhibitory concentration (IC50) in data set [6] came to 250 nM.

`Cc1cc(/C=C/C#N)cc(C)c1Oc1ccnc(Nc2ccc3c(c2)CCN(S(N)(=O)=O)C3)n1`: the EC50 in data set [1] is above 6240 nM; in data set [3] it was 8 nM; in data set [4], above 6240 nM. In data set [2], the CC50 at 120 h was 6240 nM. Also, the selectivity ratio in “in vitro [5]” turned out to be 748. In data set [6], this compound yielded an IC50 of 55 nM.

With `Cc1cc(/C=C/C#N)cc(C)c1Oc1ccnc(Nc2ccc3oncc3c2)n1`, the 50% effective concentration (EC50) in data set [1] was above 17600 nM; in data set [3], 7 nM; in data set [4], 4150 nM. The 50% cytotoxic concentration (CC50) at 120 h in data set [2] amounted to 17600 nM. The values for the selectivity ratio in “in vitro [7]” and in “in vitro [5]” were 4 and 2640, respectively. In addition, the half-inhibitory concentration (IC50) in data set [6] is 65 nM.

In the case of `COP(=O)(OC)N1CCc2cc(Nc3nccc(Oc4c(C)cc(/C=C/C#N)cc4C)n3)ccc2C1`, the concentration for a half-maximal effect (EC50) is above 4180 nM in data set [1], 8 nM in data set [3] and above 4180 nM in data set [4]. Further, the cytotoxic concentration (CC50) at 120 h in data set [2] came to 4180 nM. Also, the selectivity ratio in the data set “in vitro [5]” amounted to 515. For the same compound, the IC50 in data set [6] was found to be 170 nM.
